Values joined by “and” are separate entries in the source; they are usually repeats but may differ in a detail not shown here. Identical values can stand only once. Like-named read-outs stand apart in the source and are kept apart here.
Legend:
[1] = biological target: T1, human recombinant cannabinoid CB2 receptor (Homo sapiens, UniProt P34972); assay: CB2 radioligand displacement binding assay ([3H]CP-55940); details: for inhibition at 10 µM: displacement of [3H]CP-55940 at 10 μM compound, read-out: CB2 Max Tested µM (% Displacement); for Ki: Cheng–Prusoff from IC50, [3H]CP-55940 0.5 nM; for Ki / IC50: mean ± SEM n = 3; for IC50: [3H]CP-55940 0.5 nM, hCB2 HEK293-EBNA membranes
T1 construct: purchased Perkin Elmer Inc., Singapore Pte; Ltd. RBXCB2M400UA; host or cells: HEK293-EBNA cell membranes (overexpressing)
T1 sequence (P34972 whole entry): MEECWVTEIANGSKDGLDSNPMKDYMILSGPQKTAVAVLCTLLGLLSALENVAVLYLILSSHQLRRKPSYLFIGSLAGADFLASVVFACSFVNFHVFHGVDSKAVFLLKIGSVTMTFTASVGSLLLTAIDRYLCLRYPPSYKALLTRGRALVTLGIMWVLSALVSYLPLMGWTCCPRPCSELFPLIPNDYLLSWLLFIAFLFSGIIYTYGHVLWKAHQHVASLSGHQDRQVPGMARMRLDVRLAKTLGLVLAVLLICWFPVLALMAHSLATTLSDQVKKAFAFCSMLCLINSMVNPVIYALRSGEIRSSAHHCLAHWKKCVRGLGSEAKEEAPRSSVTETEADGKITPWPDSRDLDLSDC

[2] = biological target: T2, human cannabinoid CB1 receptor (Homo sapiens, UniProt P21554); assay: biochemical; assay type: binding; details: for inhibition at 10 µM: displacement of [3H]CP-55940 at 10 μM compound, read-out: CB1 Max Tested µM (% Displacement)
T2 construct: purchased Perkin Elmer Inc., Singapore Pte; Ltd. RBHCB1M400UA; host or cells: HEK293-EBNA cell membranes (overexpressing)
T2 sequence (P21554 whole entry): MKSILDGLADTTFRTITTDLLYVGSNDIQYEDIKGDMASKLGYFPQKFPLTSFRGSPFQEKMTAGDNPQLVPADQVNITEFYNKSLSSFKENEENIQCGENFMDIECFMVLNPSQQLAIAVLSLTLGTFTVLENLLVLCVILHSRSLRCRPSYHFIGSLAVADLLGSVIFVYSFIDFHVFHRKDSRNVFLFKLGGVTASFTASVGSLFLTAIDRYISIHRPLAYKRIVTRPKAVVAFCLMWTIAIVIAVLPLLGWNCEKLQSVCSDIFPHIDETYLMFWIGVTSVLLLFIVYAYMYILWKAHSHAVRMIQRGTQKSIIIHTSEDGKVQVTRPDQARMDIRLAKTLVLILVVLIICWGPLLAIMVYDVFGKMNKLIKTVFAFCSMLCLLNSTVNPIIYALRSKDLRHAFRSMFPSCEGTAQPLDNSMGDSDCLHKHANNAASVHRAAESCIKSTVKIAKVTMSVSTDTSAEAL

[3] = test system: HEK293 cells; assay: cells; details: for % Toxicity HEK293T: 0.1 μM, 72 h, MTT, n = 3; for cytotoxicity at 0.1 µM: Homo sapiens, HEK293, 72 h, read-out: % Toxicity HEK293T, 0.1 μM, 72 h, MTT, n = 3
Description: (§1) HEK293, U87MG, and HL-60 cell lines were seeded in a flat-bottom 96-well plate at a density of 10,000 cells per well. […] All compounds were incubated at 0.1 μM in 200 μL of culture medium supplemented with 10% FBS, in a flat-bottom 96-well plate at a density of 10,000 cells per well, at 37 °C for 72 h. Next, 20 μL of a 5 mg/mL MTT solution was added, and the cells were incubated at 37 °C for 4 h. Then, they were solubilized with 10% sodium dodecyl sulfate (SDS) in 0.1 mM HCl and incubated overnight at 37 °C. Formazan absorbance of each well was measured using the EPOCH microplate reader (Biotek, Winooski, VT, USA) at a wavelength of 570 nm. […]
(§2) promyelocytic leukemia cells (HL-60) were maintained at 5% CO2 and 37 °C in DMEM, EMEM and RPMI medium, respectively containing 10% Fetal Bovine Serum and 100 U/mL penicillin and 100 […]
(§3) Cell viability: ([MTT - (3-(4,5-dimethylthiazol-2-yl)-2,5-diphenyltetrazolium bromide) - formazan] HEK293, U87MG, and HL-60 cells were first quantified to determine the exact number to be used in […]
(§4) with the Beer-Lambert(1).
(§5) HEK293, U87MG and HL-60 cell lines were seed in a flat-bottom 96-wells plate at a density of 10,000 […]
(§6) concentrations (0.001 μM to 10 μM) in 200 μL of respective culture medium supplemented with 10% fetal bovine serum (FBS), at 37 °C for 72 hours. Subsequently, 20 μL of 5 mg/mL MTT solution was added to each well, and cells were incubated at 37 °C for 4 h. The resulting formazan crystals were then solubilized with 10% sodium dodecyl sulfate (SDS) in 0.1 mM HCl, followed by overnight incubation at 37 °C. Untreated cells were used as the control, 0.1% of dimethyl sulfoxide (DMSO) as the vehicle control, and 0.2 % of Triton X-100 as a positive control for cell death. IC 50 toxicity values […]
(§7) same conditions described in the previous paragraph. […]
(§8) determined IC50. The stimulation with both CB ligands was performed simultaneously.
(§9) All compounds were incubated at 0.1 μM in 200 μL of culture medium supplemented with 10% FBS, in a flat-bottom 96-well plate at a density of 10,000 cells per well, at 37°C for 72 hours. Next, 20 μL of a 5 mg/mL MTT solution was added, and the cells were incubated at 37°C for 4 hours. Then, they were solubilized with 10% sodium dodecyl sulfate (SDS) in 0.1 mM HCl and incubated overnight at 37°C. Formazan absorbance of each well was measured using the EPOCH microplate reader (Biotek, USA) at a wavelength of 570 nm.
(§10) [1]Mosorov, V., The Lambert-Beer law in time domain form and its application.

[4] = test system: U87MG cells; assay: cells; details: for cytotoxicity at 0.1 µM: read-out: % Toxicity U87MG, 0.1 μM, 72 h, MTT, n = 3
Description: as §1, §2, §3, §4, §5, §6, §7, §8, §9, §10

[5] = test system: HL-60 cells; assay: cells; details: for % Toxicity HL-60: 0.1 μM, 72 h, MTT, n = 3
Description: as §1, §2, §3, §4, §5, §6, §7, §8, §9, §10

[6] = Cheng–Prusoff from IC50, [3H]CP-55940 0.5 nM, mean ± SEM n = 3, read-out: CB1 Ki
[7] = [3H]CP-55940 0.5 nM, hCB1 HEK293-EBNA membranes, mean ± SEM n = 3, read-out: CB1 IC50

SMILES | inhibition at 10 µM [1] | Ki [2, 6] | IC50 [2, 7] | inhibition at 10 µM [2] | Ki [1] | IC50 [1] | IC50 [2] | Ki ([2]; CB1 Ki) | % Toxicity HEK293T [3] | cytotoxicity at 0.1 µM [3] | % Toxicity U87MG ([4]; 0.1 μM, 72 h, MTT, n = 3) | cytotoxicity at 0.1 µM ([4]; Homo sapiens, U-87 MG, 72 h) | % Toxicity HL-60 [5] | cytotoxicity at 0.1 µM ([5]; Homo sapiens, HL-60, 72 h, read-out: % Toxicity HL-60) | IC50 U87MG cells as printed in the figure picture ([4]; MTT dose–response curve, unit not given) | IC50 ([4]; Homo sapiens, U-87 MG, 72 h, read-out: IC50 toxicity U87MG, MTT, 72 h)
O=C(c1cccc2ccccc12)n1c(-c2cccnc2)nc2ccc(Cl)cc21 [4a′] | 52% | > 10 µM | > 10 µM | 20% | – | – | – | – | – | – | – | – | – | – | – | –
Cc1cc(-c2nc3ccc(Cl)cc3n2C(=O)c2cccc3ccccc23)no1 [4c′] | 29% | > 10 µM | > 10 µM | 44% | > 10 µM | > 10 µM | – | – | – | – | – | – | – | – | – | –
O=C(c1cccc2ccccc12)n1c(-c2ccon2)nc2ccc(Cl)cc21 [4d′] | 42% | – | – | 47% | > 10 µM | > 10 µM | > 10 µM | > 10 µM | – | – | – | – | – | – | – | –
Cc1ccc(-c2nc3ccc(Cl)cc3n2C(=O)c2cccc3ccccc23)o1 [4e′] | 52.8% | > 10 µM | > 10 µM | 38% | > 10 µM | > 10 µM | – | – | – | – | – | – | – | – | – | –
O=C(c1cccc2ccccc12)n1c(-c2cccnc2)nc2ccc(F)cc21 [5a′, (6-fluoro-2-(pyridin-3-yl)-1H-benzo[d]imidazol-1-yl)(naphthalen-1-yl)methanone] | 16% | > 10 µM | > 10 µM | 9.5% | > 10 µM | > 10 µM | – | – | – | – | – | – | – | – | – | –
COc1cccc(-c2nc3ccc(F)cc3n2C(=O)c2cccc3ccccc23)c1 [5b′, (6-fluoro-2-(3-methoxyphenyl)-1H-benzo[d]imidazol-1-yl)(naphthalen-1-yl)methanone] | 53.5% | > 10 µM | > 10 µM | 47% | > 10 µM | > 10 µM | – | – | – | – | – | – | – | – | – | –
Cc1cc(-c2nc3ccc(F)cc3n2C(=O)c2cccc3ccccc23)no1 [5c′, (6-fluoro-2-(5-methylisoxazol-3-yl)-1H-benzo[d]imidazol-1-yl)(naphthalen-1-yl)methanone] | 29% | > 10 µM | > 10 µM | 37% | > 10 µM | > 10 µM | – | – | – | – | – | – | – | – | – | –
O=C(c1cccc2ccccc12)n1c(-c2ccon2)nc2ccc(F)cc21 [5d′, (6-fluoro-2-(isoxazol-3-yl)-1H-benzo[d]imidazol-1-yl)(naphthalen-1-yl)methanone] | 26% | > 10 µM | > 10 µM | 34% | > 10 µM | > 10 µM | – | – | – | – | – | – | – | – | – | –
Cc1ccc(-c2nc3ccc(F)cc3n2C(=O)c2cccc3ccccc23)o1 [5e′, (6-fluoro-2-(5-methylfuran-2-yl)-1H-benzo[d]imidazol-1-yl)(naphthalen-1-yl)methanone] | 52% | > 10 µM | > 10 µM | 43% | > 10 µM | > 10 µM | – | – | – | – | – | – | – | – | – | –
O=C(c1cccc2ccccc12)n1c(-c2cccnc2)nc2cc(Cl)ccc21 [Compound 4a] | 35% | > 10 µM | > 10 µM | 36% | 6.6 µM | – | – | – | – | – | – | – | – | – | – | –
COc1cccc(-c2nc3cc(Cl)ccc3n2C(=O)c2cccc3ccccc23)c1 [Compound 4b] | 48% | > 10 µM | > 10 µM | 39% | > 10 µM | > 10 µM | – | – | – | – | – | – | – | – | – | –
Cc1cc(-c2nc3cc(Cl)ccc3n2C(=O)c2cccc3ccccc23)no1 [Compound 4c] | 30% | > 10 µM | > 10 µM | 38% | > 10 µM | > 10 µM | – | – | – | – | – | – | – | – | – | –
O=C(c1cccc2ccccc12)n1c(-c2ccon2)nc2cc(Cl)ccc21 [Compound 4d] | 15% | ~1.86 µM and 1.86 µM | 7.58 ± 4.21 µM | > 55% | > 10 µM | > 10 µM | – | – | 10 ± 9% | 10% | 50 ± 14% | 50% | – | – | – | –
Cc1ccc(-c2nc3cc(Cl)ccc3n2C(=O)c2cccc3ccccc23)o1 [Compound 4e] | 29% | > 10 µM | > 10 µM | 30% | > 10 µM | > 10 µM | – | – | – | – | – | – | – | – | – | –
O=C(c1cccc2ccccc12)n1c(-c2ccco2)nc2cc(Cl)ccc21 [Compound 4f] | 46.5% | > 10 µM | > 10 µM | > 50% | > 10 µM | > 10 µM | – | – | – | – | – | – | – | – | – | –
O=C(c1cccc2ccccc12)n1c(-c2ccco2)nc2ccc(Cl)cc21 [Compound 4f′] | 53.2% | > 10 µM | > 10 µM | 47.5% | > 10 µM | > 10 µM | – | – | 50 ± 23% | 50% | – | – | 10 ± 19% | 10% | – | –
O=C(c1cccc2ccccc12)n1c(-c2cccnc2)nc2cc(F)ccc21 [Compound 5a] | 43% | > 10 µM | > 10 µM | 41% | > 10 µM | > 10 µM | – | – | – | – | – | – | – | – | – | –
Cc1cc(-c2nc3cc(F)ccc3n2C(=O)c2cccc3ccccc23)no1 [Compound 5c, (5-fluoro-2-(5-methylisoxazol-3-yl)-1H-benzo[d]imidazol-1-yl)(naphthalen-1-yl)methanone] | 24% | > 10 µM | > 10 µM | 54.5% | > 10 µM | > 10 µM | – | – | – | – | – | – | – | – | – | –
O=C(c1cccc2ccccc12)n1c(-c2ccon2)nc2cc(F)ccc21 [Compound 5d, (5-fluoro-2-(isoxazol-3-yl)-1H-benzo[d]imidazol-1-yl)(naphthalen-1-yl)methanone] | 51% | > 10 µM | > 10 µM | 54% | > 10 µM | > 10 µM | – | – | – | – | – | – | – | – | – | –
O=C(c1cccc2ccccc12)n1c(-c2ccco2)nc2cc(F)ccc21 [Compound 5f, (5-fluoro-2-(furan-2-yl)-1H-benzo[d]imidazol-1-yl)(naphthalen-1-yl)methanone] | 54.5% | ~1.48 µM and 1.48 µM | 6.03 ± 4.09 µM | > 55% | > 10 µM | > 10 µM | – | – | – | – | – | – | – | – | 8.963 x 10^-8 | –
O=C(c1cccc2ccccc12)n1c(-c2ccco2)nc2ccc(F)cc21 [Compound 5f′, (6-fluoro-2-(furan-2-yl)-1H-benzo[d]imidazol-1-yl)(naphthalen-1-yl)methanone] | 47% | ~2.12 µM and 2.12 µM | 8.65 ± 3.11 µM | > 55% | > 10 µM | > 10 µM | – | – | – | – | – | 66% | does not show any toxicity | – | – | 0.089 µM

— publication PMC12564498, “Benzo[d]imidazole–Naphthalen-Arylmethanone Regioisomers as CB1 Ligands: Evaluation of Agonism via an Indirect Cytotoxicity-Based Approach” (International Journal of Molecular Sciences, 2025)
